Laboratory results taken from patent publication US20200246284A1 (Academia Sinica, priority 2015, published 2020).
Several values for one entry are separate records, joined by “and”; a condition that tells them apart may be missing. Equal entries are not always repeated. Where two headings read alike, the source gives them in different places.

Columns and labels:
SET2 = assay: Cytotoxicity leukemia; type: cell-based; settings: Homo sapiens, SET-2; SET2 JAK2-V617 mut
[1] = Pharmacokinetics, single IV 1 mg/kg or oral 10 mg/kg; type: in vivo, Sprague Dawley rats; settings: for oral absorption: 10 mg/kg
Description: A single intravenous dose was administered via an indwelling catheter in the jugular vein to a group of 2 male rats at a dose level of 1.0 mg/kg. The formulations were prepared as a solution in 5.0% w/v DMSO with 10% w/v Cremophor in distilled water. […] The formulations were prepared as a solution in 0.5% w/v CMC in distilled water. Serial blood samples were collected from the jugular vein catheter up to 24 h post-dose from all animals in groups.

[2] = Pharmacokinetics, IV bolus 10 mg/kg; type: in vivo, Sprague-Dawley rats; settings: rat
Description: Serial blood samples were collected from the jugular vein at 0, 5, 10, 15, 30, 45, 60, 90, 120, 150, 180, 240, 300, 360 min after dosing. […] All pharmacokinetic analysis was carried out using the WinNonlin Standard Edition Version 1.0 (Scientific Consulting Inc., Apex, NC, USA).

Caco-2 permeability = type: in vitro ADME, human; settings: human, Caco-2, 10 μM
Description: (§1) The Caco-2 permeability assay is considered to be the industry gold standard for in vitro prediction of in vivo human intestinal permeability and bioavailability of orally administered drugs. The Caco-2 permeability assay uses an established method for predicting the absorption of therapeutic compounds across the GIT by measuring the rate of transport across a contiguous Caco-2 cell monolayer. […] The Caco-2 assay measures the passage of a test compound from a donor chamber into an acceptor chamber through a porous membrane on which a confluent Caco-2 monolayer forms a cellular barrier.

Caco-2 cell monolayers = assay: Caco-2 permeability; type: in vitro ADME, human
Description: as §1

[3] = test system: primary Pre-B-ALL cells in NSG mice; assay: Primary pre-B-ALL xenograft; type: in vivo, mouse; settings: Q10D2x from day 7
DLBCL (GBC) cell lines = assay: Combination of BO-1055 with PUH71, TT46, bortezomib, doxorubicin (Table 25); type: cell-based; settings: Homo sapiens
Z-138 [4] = assay: Combination with BO-1055, MCL (Tables 28, 29); type: cell-based, human; settings: read-out: IC50 single drug
Granta = assay: Combination with BO-1055, MCL (Tables 28, 29); type: cell-based, human; settings: read-out: IC50 single drug
NECB1 = assay: Combination with BO-1055, MCL (Tables 28, 29); type: cell-based, human; settings: read-out: IC50 single drug
JEKO-1 = settings: human
Description: (§2) After 72 hours, the cultures were pulsed with Alamar Blue overnight, and the fluorescent intensity of resulted cultures was measured by a Synergy H1 plate-reader (BioTek Inc).

Toledo = settings: human
Description: as §2

HBL1 = settings: human
Description: as §2

in vitro = settings: rat, microsomes
hERG = hERG (Homo sapiens, UniProt Q12809); assay: in vitro
Microsome stability = settings: rat, microsomes
A204 rhabdomyosarcoma = assay: Cytotoxicity sarcoma; settings: read-out: cytotoxic activity (IC50), A204 (rhabdoid?)
Description: as §2

SUDHL-5 = assay: Cytotoxicity DLBCL; settings: read-out: cytotoxicity IC50; SUDHL-5, DLBCL GCB
Z-138 [5] = assay: Cytotoxicity mantle cell lymphoma
Description: as §2

[6] = test system: nude mice bearing prostate 22Rv/HL2; assay: Complete blood count, 22Rv/HL2 xenograft mice; settings: 24 hrs after last treatment
[7] = test system: 16HBE SV40+ bronchial epithelium; type: cell-based, human
[8] = test system: IMR90 fetal lung myofibroblast; assay: Cytotoxicity normal tissue 72 hr; type: cell-based, human
H1650 = type: cell-based, human
H1975 = type: cell-based, human
H525 = type: cell-based, human
HCC15 = type: cell-based, human
H187 = assay: Cytotoxicity SCLC 72 hr alamar blue; type: cell-based, human
H209 = assay: Cytotoxicity SCLC 72 hr alamar blue; type: cell-based, human
H417 = assay: Cytotoxicity SCLC 72 hr alamar blue; type: cell-based, human
[9] = male, Sprague-Dawley, plasma, IV 10 mg/kg, n=5
[10] = male, Sprague-Dawley, plasma, iv, 10 mg/kg, n=5

Chain of hERG (Q12809 whole entry): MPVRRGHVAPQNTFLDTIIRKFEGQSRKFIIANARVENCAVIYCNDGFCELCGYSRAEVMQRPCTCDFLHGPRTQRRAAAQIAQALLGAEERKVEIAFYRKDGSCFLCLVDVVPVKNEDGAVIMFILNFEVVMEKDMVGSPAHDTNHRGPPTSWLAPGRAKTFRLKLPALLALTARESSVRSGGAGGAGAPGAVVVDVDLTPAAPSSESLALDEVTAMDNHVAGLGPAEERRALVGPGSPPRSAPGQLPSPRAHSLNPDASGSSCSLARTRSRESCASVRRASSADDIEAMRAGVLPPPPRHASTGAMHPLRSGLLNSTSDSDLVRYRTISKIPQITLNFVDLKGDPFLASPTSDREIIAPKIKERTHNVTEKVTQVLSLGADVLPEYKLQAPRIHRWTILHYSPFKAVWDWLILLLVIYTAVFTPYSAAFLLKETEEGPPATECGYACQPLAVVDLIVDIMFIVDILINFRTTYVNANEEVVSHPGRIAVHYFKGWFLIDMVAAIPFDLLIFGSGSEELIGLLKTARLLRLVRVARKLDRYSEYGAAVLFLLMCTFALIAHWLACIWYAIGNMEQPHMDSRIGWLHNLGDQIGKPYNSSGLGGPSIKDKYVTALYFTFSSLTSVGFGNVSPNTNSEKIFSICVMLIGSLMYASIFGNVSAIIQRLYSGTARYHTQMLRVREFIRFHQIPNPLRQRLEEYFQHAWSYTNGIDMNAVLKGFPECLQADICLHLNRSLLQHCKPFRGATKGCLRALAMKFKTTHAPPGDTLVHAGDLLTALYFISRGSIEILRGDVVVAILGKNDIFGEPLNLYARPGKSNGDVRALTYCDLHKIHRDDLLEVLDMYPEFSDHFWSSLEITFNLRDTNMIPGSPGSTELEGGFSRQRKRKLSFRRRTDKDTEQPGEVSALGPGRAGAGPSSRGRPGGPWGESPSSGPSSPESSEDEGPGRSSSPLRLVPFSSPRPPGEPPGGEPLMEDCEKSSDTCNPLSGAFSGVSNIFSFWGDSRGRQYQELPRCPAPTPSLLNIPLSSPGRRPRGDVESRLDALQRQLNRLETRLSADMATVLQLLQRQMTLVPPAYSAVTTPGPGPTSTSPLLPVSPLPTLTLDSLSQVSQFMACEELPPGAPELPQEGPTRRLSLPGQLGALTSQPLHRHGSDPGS

In the case of `CN(C)CCNC(=O)c1cccc(NC(=O)Nc2ccc(N(CCCl)CCCl)cc2)c1` [BO-1055, Ureidomustine], the IC50 (SET2) is reported as over 10 µM, the “AUC (0-last)” value ([1]; IV 1 mg/kg, rat) is reported as 925.81 ng·h/mL and the “AUC (0-∞)” value ([1]; IV 1 mg/kg, rat) is reported as 934.93 ng·h/mL. For the same compound, the CLss ([1]; IV 1 mg/kg, rat) was 18.00 mL/min/kg, the Vss ([1]; IV 1 mg/kg, rat) was 0.15 L/kg and the t1/2 ([1]; IV 1 mg/kg, rat) was 34.8 min. For the same compound, the C0 ([1]; male, Sprague Dawley, plasma, IV 1 mg/kg, rat) was 12000 ng/mL, the “plasma levels after oral administration” value ([1]; oral 10 mg/kg, LLOQ […]) was “No quantifiable levels” and the oral absorption ([1]; oral 10 mg/kg, rat) was “no oral absorption”. The oral absorption ([1]; oral 10 mg/kg, rat, listed as ureidomustine) was “No Oral Absorption”, the tissue distribution ([2]; IV 10 mg/kg) was “accumulated mainly in the kidney, with only a limited amount detected in the brain” and the Cl ([2]; IV 10 mg/kg, n=5, 10 mg/kg) was 39.2 ± 10.6 mL/min per kg. The AUC [2, 9] was 4450 ng·h/mL, the Cmax [2, 9] was 13400 ± 6170 ng/mL and the clearance [2, 10] was 39.4 ± 10.6 mL/min/kg. For the same compound, the half-life [2, 10] was 46.2 min, the Papp B→A at 10 μM (Caco-2 permeability) was 7.05 ×10⁻⁶ cm/s and the “Papp (B to A)” value (Caco-2 cell monolayers; 10 μM) was “Papp (B to A) = 7.5 × 10−6 cm/sec”. The mass balance (Caco-2 cell monolayers; A→B and B→A directions) was under 50%, the “Papp coefficient A→B” value (Caco-2 cell monolayers; Caco-2) was “not detected” and the “reduction of tumor growth” value [3] was 2 log. The “survival longer than control” value [3] was about 100 days, the IC50 (DLBCL (GBC) cell lines; KARPAS-422, read-out: IC50 single agent) was 5.85 µM and the IC50 (DLBCL (GBC) cell lines; OCI-LY19, read-out: IC50 single agent) was 0.287 µM. For the same compound, the IC50 (DLBCL (GBC) cell lines; OCI-Ly8, read-out: IC50 single agent) was 0.224 µM, the IC50 (DLBCL (GBC) cell lines; OCI-Ly18, read-out: IC50 single agent) was 0.608 µM and the IC50 (DLBCL (GBC) cell lines; SU-DHL-4, read-out: IC50 single agent) was 1.95 µM. The IC50 (DLBCL (GBC) cell lines; SU-DHL-5, read-out: IC50 single agent) was 4.14 µM, the IC50 (DLBCL (GBC) cell lines; SU-DHL-6, read-out: IC50 single agent) was 5.93 µM and the IC50 (DLBCL (GBC) cell lines; Toledo, read-out: IC50 single agent) was 8.95 µM. For the same compound, the IC50 (DLBCL (GBC) cell lines; read-out: IC50 single agent) was 3.19 µM, the IC50 (Z-138 [4]) was 0.299 µM and 0.303 µM and 0.301 µM and the IC50 (Granta) was 5.26 µM and 5.5 µM and 6.55 µM. For the same compound, the IC50 (NECB1) was 7.42 µM and 7.78 µM and 8.52 µM, the IC50 (JEKO-1) was 0.27 µM and the IC50 (Toledo) was 8.95 µM. The IC50 (HBL1) was 0.87 µM, the half-life (in vitro) was 29.7 min and the IC50 (hERG) was 12.6 ± 1.64 µM. For the same compound, the intrinsic clearance (Microsome stability) was “High intrinsic clearance”, the IC50 (A204 rhabdomyosarcoma) was 0.08 µM and the IC50 (SUDHL-5) was 4.14 µM. For the same compound, the IC50 (Z-138 [5]; read-out: cytotoxicity IC50, Z-138, mantle cell lymphoma) was 0.3 µM, the IC50 (Z-138 [5]; read-out: mean IC50±SD, Z-138) was 0.182 ± 0.15 µM and the BASO [6] was 0.06 10^3/μL. For the same compound, the EOS [6] was 0.14 10^3/μL, the LYM [6] was 1.52 10^3/μL and the MONO [6] was 0.08 10^3/μL. For the same compound, the NEU [6] was 0.83 10^3/μL, the PLT [6] was 195 10^3/μL and the RBC [6] was 9.52 10^6/μL. For the same compound, the WBC [6] was 2.98 10^3/μL.
For `N.N.[Cl][Pt][Cl]` [Cisplatin], the IC50 [7] was 3.6 µM, the IC50 [8] was over 100 µM and the IC50 (H1650) was 7.51 µM. The IC50 (H1975) was at least 10 µM, the IC50 (H525) was 7.74 µM and the IC50 (HCC15) was at least 85 µM. The IC50 (H187) was 1.01 µM, the IC50 (H209) was 0.31 µM and the IC50 (H417) was 2.01 µM.
